Toxic doses and inconclusive results are not listed. How the source made its calls: active means survival T/C of 150% or more; inactive means T/C below 125% in these data.
Tested on: CD2F1 mice, L1210 leukemia ip, survival T/C
Assay: NCI In Vivo Anticancer Drug Screen. Data for tumor model L1210 Leukemia (intraperitoneal) in CD2F1 (CDF1) mice
Conditions: endpoint: mean survival time, higher = longer survival
Summary of the method: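 Antitumor effect is scored in animals hosting a serially transplanted tumor. Values compare compound-dosed animals against vehicle-only controls as a simple quotient.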

[1] = dose: 100.0 mg/kg/injection, schedule: Q04DX003 (ip), vehicle: saline with Tween-80
[2] = dose: 200.0 mg/kg/injection, schedule: Q04DX003 (ip), vehicle: saline with Tween-80
[3] = dose: 400.0 mg/kg/injection, schedule: Q04DX003 (ip), vehicle: saline with Tween-80
[4] = dose: 100.0 mg/kg/injection, schedule: Q01DX001 (ip), vehicle: saline
[5] = dose: 200.0 mg/kg/injection, schedule: Q01DX001 (ip), vehicle: saline
[6] = dose: 100.0 mg/kg/injection, schedule: Q01DX009 (ip), vehicle: saline with Tween-80
[7] = dose: 200.0 mg/kg/injection, schedule: Q01DX009 (ip), vehicle: saline with Tween-80
[8] = dose: 50.0 mg/kg/injection, schedule: Q01DX009 (ip), vehicle: saline with Tween-80
[9] = dose: 100.0 mg/kg/injection, schedule: Q04DX002 (ip), vehicle: saline

Measured: T/C

O=C1OC(=O)C2C3OC(C4CN=NC43)C12 (stereo unspecified)
inactive: dose: 100.0 mg/kg/injection, schedule: Q04DX002 (ip), vehicle: saline with Tween-80 112 % of control | dose: 200.0 mg/kg/injection, schedule: Q04DX002 (ip), vehicle: saline with Tween-80 118 % of control

O=[N+]([O-])c1[nH]c(Br)nc1Br
inactive: [1] 95 % of control | [2] 100 % of control

CC(C)(C)[CH2][Sn]([Cl])([CH2]C(C)(C)C)[CH2]C(C)(C)C
inactive: dose: 3.13 mg/kg/injection, schedule: Q04DX002 (ip), vehicle: saline with Tween-80 97 % of control | dose: 6.25 mg/kg/injection, schedule: Q04DX002 (ip), vehicle: saline with Tween-80 101 % of control | dose: 12.5 mg/kg/injection, schedule: Q04DX002 (ip), vehicle: saline with Tween-80 103 % of control

CCCCCC(=O)C(CCCC)C(=O)Nc1ccccc1 (stereo unspecified)
inactive: [1] 94 % of control | [2] 96 % of control | [3] 91 % of control

CC1(C)CC(OP(=O)(c2ccccc2)c2ccccc2)CC(C)(C)N1O
inactive: dose: 100.0 mg/kg/injection, schedule: Q04DX003 (ip), vehicle: water 106 % of control | dose: 200.0 mg/kg/injection, schedule: Q04DX003 (ip), vehicle: water 91 % of control | dose: 400.0 mg/kg/injection, schedule: Q04DX003 (ip), vehicle: water 102 % of control

CCOC(=O)Nc1cc(Nc2ccccc2)c(N)c(N)n1
inactive: [4] 88 % of control | [5] 94 % of control

CC(=O)C(C(c1ccccc1)C1CCCc2ccccc21)N1CCOCC1 (stereo unspecified)
inactive: [6] 104 % of control | [1] 103 % of control | [7] 98 % of control | [2] 100 % of control | dose: 400.0 mg/kg/injection, schedule: Q01DX009 (ip), vehicle: saline with Tween-80 95 % of control | [3] 101 % of control

COc1ccc2[nH]c3c(c2c1)CNCC3
inactive: dose: 50.0 mg/kg/injection, schedule: Q01DX001 (ip), vehicle: saline 106 % of control | [4] 102 % of control | [5] 113 % of control

C[CH2][Sn]([Cl])([Cl])[Cl].Oc1ccccc1C=NCCN=Cc1ccccc1O
inactive: [8] 100 % of control | [6] 95 % of control | [1] 98 % of control | [7] 97 % of control | [2] 89 % of control

CN(C)S(=O)(=O)c1ccc(Cl)c([N+](=O)[O-])c1
inactive: dose: 100.0 mg/kg/injection, schedule: Q04DX002 (ip), vehicle: Klucel (hydroxypropylcellulose) (HPC) 106 % of control | dose: 200.0 mg/kg/injection, schedule: Q04DX002 (ip), vehicle: Klucel (hydroxypropylcellulose) (HPC) 106 % of control

Cc1cc2nc(Cc3nc4cc(C)c(C)cc4[nH]3)[nH]c2cc1C
inactive: [8] 93 % of control | [6] 87 % of control | [7] 88 % of control

O=C1C=C(O)c2cc(Br)ccc2C1=O.[Ag]
inactive: dose: 25.0 mg/kg/injection, schedule: Q04DX002 (ip), vehicle: saline 106 % of control | dose: 50.0 mg/kg/injection, schedule: Q04DX002 (ip), vehicle: saline 113 % of control | [9] 97 % of control

c1ccc(N=C2CCCCC2)cc1
inactive: dose: 100.0 mg/kg/injection, schedule: Q01DX001 (ip), vehicle: other 115 % of control | dose: 100.0 mg/kg/injection, schedule: Q01DX001 (ip), vehicle: saline + Tween-80 + alcohol 98 % of control | dose: 200.0 mg/kg/injection, schedule: Q01DX001 (ip), vehicle: other 93 % of control | dose: 200.0 mg/kg/injection, schedule: Q01DX001 (ip), vehicle: saline + Tween-80 + alcohol 102 % of control | dose: 400.0 mg/kg/injection, schedule: Q01DX001 (ip), vehicle: other 120 % of control | dose: 400.0 mg/kg/injection, schedule: Q01DX001 (ip), vehicle: saline + Tween-80 + alcohol 103 % of control | dose: 600.0 mg/kg/injection, schedule: Q01DX001 (ip), vehicle: saline + Tween-80 + alcohol 105 % of control

O=c1[nH]cnc2c1ncn2C1CC(CO)C(O)OC1O (stereo unspecified)
active: [9] 164 % of control | dose: 200.0 mg/kg/injection, schedule: Q04DX002 (ip), vehicle: saline 188 % of control

— PubChem BioAssay AID256 (DTP/NCI, 2004)
